Measured values as given in patent publication US20100204135A1, “USE OF LVV-HEMORPHIN-6 AND OPTIONALLY AF12198 AS THERAPEUTIC AGENT(S)” (priority 2007, published 2010).
Where no end group is shown, it is not given here.

Tested on: drug-resistant Mycobacterium tuberculosis
Assay: Mycobacterium tuberculosis assay
Type: cell-based

Substance | inhibition of the growth of Mycobacterium tuberculosis [%]
Leu-Val-Val-Tyr-Pro-Trp-Thr-Gln-Arg-OH (LVVYPWTQR-OH) [Peptide 1] | 100
Phe-Glu-Trp-Thr-Pro-Gly-Tyr-Trp-Gln-Pro-Tyr-Ala-Leu-Pro-Leu-OH (FEWTPGYWQPYALPL-OH) [Peptide 2] | 100
